In ChEMBL document CHEMBL1667820, “Synthesis and antitubercular evaluation of novel substituted aryl and thiophenyl tethered dihydro-6H-quinolin-5-ones” (2011):
Converted amounts (≈) assume the structure as drawn.

System: Mycobacterium tuberculosis
Experiment: Antimycobacterial activity against Mycobacterium tuberculosis H37Rv by agar dilution method
Assay type: functional

Row | Structure (SMILES) | MIC [µg/mL]
1 | O=C1c2ccc(-c3ccc(Br)s3)nc2CCC1(CO)CO | > 25
2 | O=C1CCCc2nc(-c3cccs3)ccc21 | 12.5 (≈ 54.5 µM)
3 | CC1(C)CC(=O)c2ccc(-c3ccc(Cl)s3)nc2C1 | 3.13 (≈ 10.7 µM)
4 | CC1(C)CC(=O)c2ccc(-c3ccc(Br)s3)nc2C1 | 3.13 (≈ 9.31 µM)
5 | CC1(C)CC(=O)c2ccc(-c3cccs3)nc2C1 | 6.25 (≈ 24.3 µM)
6 | Cc1ccc(-c2ccc3c(n2)CC(C)(C)CC3=O)cc1 | 6.25 (≈ 23.6 µM)
7 | O=C1CCCc2nc(-c3ccc(Cl)s3)ccc21 | 6.25 (≈ 23.7 µM)
8 | COc1ccc(-c2ccc3c(n2)CCCC3=O)cc1 | 12.5 (≈ 49.3 µM)
9 | O=C1c2ccc(-c3cccs3)nc2CCC1(CO)CO | > 25
10 | Cc1ccc(-c2ccc3c(n2)CCCC3=O)cc1 | 12.5 (≈ 52.7 µM)
11 | O=C1CCCc2nc(-c3ccc(Br)s3)ccc21 | 6.25 (≈ 20.3 µM)
12 | O=C1c2ccc(-c3ccccc3)nc2CCC1(CO)CO | > 25
13 | O=C1CCCc2nc(-c3ccccc3)ccc21 | 12.5 (≈ 56 µM)
14 | Cc1ccc(-c2ccc3c(n2)CCC(CO)(CO)C3=O)cc1 | > 25
15 | NC(=O)c1cnccn1 [PYRAZINAMIDE] | 50 (≈ 406 µM)
16 | O=C1c2ccc(-c3ccc(Cl)s3)nc2CCC1(CO)CO | > 25
17 | COc1ccc(-c2ccc3c(n2)CC(C)(C)CC3=O)cc1 | 12.5 (≈ 44.4 µM)
18 | CC[C@@H](CO)NCCN[C@@H](CC)CO [ETHAMBUTOL] | 3.13 (≈ 15.3 µM)
19 | NNC(=O)c1ccncc1 [ISONIAZID] | 0.1 (≈ 0.729 µM)
20 | COc1ccc(-c2ccc3c(n2)CCC(CO)(CO)C3=O)cc1 | > 25
21 | CC1(C)CC(=O)c2ccc(-c3ccccc3)nc2C1 | 12.5 (≈ 49.7 µM)
